What was measured:
PRMT1 [1] = target: T1, PRMT1 (Homo sapiens, UniProt Q99873); test: PRMT1 RKO Cellular Target Engagement Assay (In-Cell Western, asymmetric di-methyl arginine); format: cell-based; conditions: RKO cells, 48 hr compound incubation; read-out: RKO IC50 (PRMT-1 Target Engagement)
How it was run: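 RKO cells (1,000/well) received 1:3 serially diluted compound for 48 h at 37 °C, then were fixed, permeabilised and immunostained for asymmetric di-methyl arginine by In-Cell Western. The 800 nm antibody signal was normalised to CellTag 700 nm; IC50 from four-parameter logistic fit.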

PATC53 cells = test: PATC53 Long Term Phenotypic Assay (14 days, crystal violet viability); format: cell-based; conditions: 336 h
How it was run: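 Cells seeded at 250 per well, allowed 24 h to settle, then treated with 1:3 serial dilutions of compound for 14 days at 37 °C, 5% CO2. Viability measured by crystal violet staining, solubilised in 10% HOAc, absorbance 590 nm; IC50 from four-parameter logistic fit.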

DOHH2 cells = test: DOHH2 Long Term Phenotypic Assay (7 days, Cell Titer-Glo viability); format: cell-based; conditions: Homo sapiens, DOHH-2, 168 h, Cell Titer-Glo 2.0
How it was run: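 DOHH2 lymphoma cells (250 per well) in RPMI-1640 with 10% FBS were exposed to 1:3 serially diluted compounds for 7 days at 37 °C, 5% CO2. Viability was read by CellTiter-Glo 2.0 luminescence, and IC50 values came from four-parameter logistic fits.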

PRMT1 [2] = target: T1, PRMT1; test: PRMT1 Enzymatic Assay (LANCE TR-FRET, methylation of histone H4 at Arg3); format: biochemical; design: purchased SignalChem P365-380G; conditions: PRMT1 1.5 nM, SAM 1 μM, biotinylated histone H4 (1-21) 25 nM; read-out: PRMT-1 IC50
How it was run: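 PRMT1 (1.5 nM) preincubated 15 min with compound at room temperature, then reacted 1 h with 1 μM SAM and 25 nM biotinylated histone H4 (1-21) in 50 mM Hepes pH 8, 1 mM TCEP, 0.003% Tween-20. H4R3me detected by TR-FRET (665/620 nm ratio); IC50 from four-parameter logistic fit.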

T1 sequence (Q99873 whole entry): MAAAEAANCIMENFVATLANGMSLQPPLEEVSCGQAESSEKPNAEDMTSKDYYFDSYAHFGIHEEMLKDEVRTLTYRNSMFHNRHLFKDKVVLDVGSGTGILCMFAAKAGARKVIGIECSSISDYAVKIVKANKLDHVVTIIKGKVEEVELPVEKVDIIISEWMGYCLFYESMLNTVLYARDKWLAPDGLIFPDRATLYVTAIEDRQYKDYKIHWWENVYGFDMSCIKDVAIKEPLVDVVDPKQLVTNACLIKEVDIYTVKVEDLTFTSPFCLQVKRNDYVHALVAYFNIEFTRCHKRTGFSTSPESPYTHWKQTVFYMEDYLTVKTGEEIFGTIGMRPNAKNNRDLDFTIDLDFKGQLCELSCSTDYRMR

SMILES | IC50 (PRMT1 [1]) | IC50 (PATC53 cells) | IC50 (DOHH2 cells) | IC50 (PRMT1 [2])
COCC1(COC)CCC(c2c(CN(C)CCN)nn3c2CN(C(=O)C2CC(F)(F)C2)CC3)CC1 [Example 40, (2-(((2-aminoethyl)(methyl)-amino)methyl)-3-(4,4-bis-(methoxymethyl)cyclohexyl)-6,7-dihydropyrazolo[1,5-a]-pyrazin-5(4H)-yl)(3,3-difluorocyclobutyl)-methanone] | 1520 nM | 304 nM | 249 nM | 54 nM
CNCCN(C)Cc1nn2c(c1C1CCC(COC)(COC)CC1)CN(C(=O)C1(C#N)CCC1)CC2 [Example 41, 1-(3-(4,4-bis(methoxy-methyl)cyclohexyl)-2-((methyl(2-(methylamino)-ethyl)amino)methyl)-4,5,6,7-tetrahydropyrazolo[1,5-a]-pyrazine-5-carbonyl)cyclobutane-1-carbonitrile] | 180 nM | 175 nM | 91 nM | 72 nM
COCC1(COC)CCC(c2c(CN(C)CCN)nn3c2CN(C(=O)C2CCCC2)CC3)CC1 [Example 42, (2-(((2-aminoethyl)(methyl)-amino)methyl)-3-(4,4-bis-(methoxymethyl)cyclohexyl)-6,7-dihydropyrazolo[1,5-a]-pyrazin-5(4H)-yl)-(cyclopentyl)methanone] | 431 nM | 136 nM | 180 nM | 29 nM
COCC1(COC)CCC(c2c(CN(C)CCN)nn3c2CN(C(=O)C(C)C)CC3)CC1 [Example 43, 1-(2-(((2-aminoethyl)-(methyl)amino)methyl)-3-(4,4-bis(methoxymethyl)-cyclohexyl)-6,7-dihydro-pyrazolo[1,5-a]pyrazin-5(4H)-yl)-2-methylpropan-1-one] | 460 nM | 149 nM | 185 nM | 27 nM
COCC1(COC)CCC(c2c(CN(C)CCN)nn3c2CN(C(=O)C24CC(C2)C4)CC3)CC1 [Example 44, (2-(((2-aminoethyl)(methyl)-amino)methyl)-3-(4,4-bis-(methoxymethyl)cyclohexyl)-6,7-dihydropyrazolo[1,5-a]-pyrazin-5(4H)-yl)(bicyclo-[1.1.1]pentan-1-yl)methanone] | 210 nM | 123 nM | 150 nM | 17 nM
COCC1(COC)CCC(c2c(CN(C)CCN)nn3c2CN(C(=O)C24CC(F)(C2)C4)CC3)CC1 [Example 45, (2-(((2-aminoethyl)(methyl)-amino)methyl)-3-(4,4-bis-(methoxymethyl)cyclohexyl)-6,7-dihydropyrazolo[1,5-a]-pyrazin-5(4H)-yl)(3-fluorobicyclo[1.1.1]pentan-1-yl)methanone] | 830 nM | 178 nM | 175 nM | 18 nM
COCC1(COC)CCC(c2c(CN(C)CCN)nn3c2CN(C(=O)C2(C(F)(F)F)CC2)CC3)CC1 [Example 46, (2-(((2-aminoethyl)(methyl)-amino)methyl)-3-(4,4-bis-(methoxymethyl)cyclohexyl)-6,7-dihydropyrazolo[1,5-a]-pyrazin-5(4H)-yl)(1-(trifluoro-methyl)cyclopropyl)-methanone] | 486 nM | 294 nM | 288 nM | 29 nM
COCC1(COC)CCC(c2c(CN(C)CCN)nn3c2CN(C(=O)C2(F)CC2)CC3)CC1 [Example 47, (2-(((2-aminoethyl)(methyl)-amino)methyl)-3-(4,4-bis-(methoxymethyl)cyclohexyl)-6,7-dihydropyrazolo[1,5-a]-pyrazin-5(4H)-yl)(1-fluorocyclopropyl)methanone] | 671 nM | 45 nM | 187 nM | 15 nM
CNCCN(C)Cc1nn2c(c1C1CCC(COC)(COC)CC1)CN(C(=O)C1CCC(OC)CC1)CC2 (stereo not drawn) [Example 48, (3-(4,4-bis(methoxymethyl)-cyclohexyl)-2-((methyl(2-(methylamino)ethyl)amino)-methyl)-6,7-dihydropyrazolo-[1,5-a]pyrazin-5(4H)-yl)(4-methoxycyclohexyl)-methanone] | 1410 nM | 247 nM | 284 nM | 156 nM

From patent US20230416261A1, “ETHANEDIAMINE-HETEROCYCLE DERIVATIVES AS INHIBITORS OF PROTEIN ARGININE METHYLTRANSFERASES” (Board of Regents, The University of Texas System, priority 2021, published 2023)
